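Each compound was tested at five concentrations against cells in 96-well plates for 48 hours. GI50 = concentration required for 50% inhibition of growth. TGI is the concentration that stops growth completely.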

Common to all, as to assay: NCI tumour cell line growth inhibition, 48 h
The subject of assay [1] is UACC-62 melanoma.
Assay [2] concerns NCI-H522 lung.
In assay [3] the test system is OVCAR-5 ovarian.
For assay [4], the system named is MALME-3M melanoma.
Assay [5] deals with LOX IMVI melanoma.
The subject of assay [6] is U251 CNS.
The subject of assay [7] is NCI/ADR-RES ovarian.
Assay [8] deals with MOLT-4 leukemia.
Assay [9] has as its system HL-60(TB) leukemia.
Assay [10] relates to K-562 leukemia.

Turning to `O=C(O)Cn1ccc2ccccc21`, the GI50 in assay [1], in assay [2], in assay [3], in assay [4], in assay [5] and in [6] was more than 100 µM in each case. Moreover, in assay [7], the GI50 is more than 100 µM. Moreover, the TGI in assay [1], in assay [2], in assay [3], in assay [4], in assay [5] and in assay [6] was more than 100 µM each time. The same compound came in with a TGI in assay [7] of more than 100 µM.

Turning to `CC(C)(C)c1nc(-c2cccc(NS(=O)(=O)c3c(F)cccc3F)c2F)c(-c2ccnc(N)n2)s1`, the GI50 in [8] is 26.5 µM; in [9] it was 4.68 µM; in assay [2], 19 µM; in assay [3] it was 12.3 µM; in assay [5], 0.233 µM; in assay [10] it was 25.6 µM. Besides, the GI50 in assay [6] is 45.5 µM; in assay [7] it was 50.9 µM. Moreover, the TGI in assay [8] was more than 100 µM; in assay [9], 37.4 µM; in assay [2], 54.7 µM; in assay [3], more than 100 µM; in assay [5], more than 100 µM; in assay [10] it was more than 100 µM. Moreover, the TGI in assay [6] and in assay [7] was more than 100 µM each time.

Turning to `COc1cc2nc(-c3cccc4cccnc34)nc(NC3CCN(Cc4ccccc4)CC3)c2cc1OC`, the GI50 in assay [1] is 2 µM; in [8] it was 0.325 µM; in [2], 1.45 µM; in [3], 1.3 µM; in assay [4], 1.83 µM; in assay [6], 1.05 µM. For the same compound, the GI50 in assay [7] was 2.1 µM. Besides, the TGI stood at 4.02 µM in assay [1]; 1.81 µM in [8]; 3.98 µM in [2]; 2.73 µM in [3]; 3.51 µM in assay [4]; 2.55 µM in assay [6]. In assay [7], the TGI came out at 5.61 µM.

Consider `CNCCCNc1c2ccccc2nc2cccc([N+](=O)[O-])c12`, for which the TGI turned out to be 0.00942 µM in assay [1]; 0.0022 µM in [2]; 0.022 µM in assay [3]; 0.00997 µM in assay [4]; 0.016 µM in assay [5]; 0.0519 µM in assay [6]. Besides, the TGI in [7] turned out to be 0.0346 µM.

On to `Cc1ccc(O)c(NC2=C(Cl)C(=O)N(Cc3ccccc3)C2=O)c1`, for which the GI50 in assay [1] was 17 µM; in assay [8], 1.55 µM; in assay [2] it was 13.1 µM; in assay [3] it was 33.3 µM; in [4], 23 µM; in assay [5], 20.3 µM. In addition, the GI50 is 12.4 µM in [10], 19.8 µM in assay [6] and 38.1 µM in assay [7]. Further, the TGI in [1] is 36.8 µM; in assay [8] it was 74.2 µM; in [2], 29.9 µM; in assay [3] it was 89.1 µM; in assay [4] it was 67.5 µM; in assay [5], 45.7 µM. In addition, the results for the TGI in [10], in assay [6] and in [7] were 59.6 µM, 43.3 µM and more than 100 µM, respectively.

For `Nc1nc2c(ccc3ccccc32)s1`, the GI50 was 75.8 µM in assay [1]; 12.7 µM in [8]; more than 100 µM in assay [2]; more than 100 µM in [3]; 61.9 µM in assay [4]; 78.2 µM in [5]. In addition, the GI50 in assay [10] was 91.5 µM; in assay [6] it was more than 100 µM; in assay [7], more than 100 µM. Further, the TGI in assay [1], in assay [8], in assay [2], in [3], in [4] and in assay [5] was more than 100 µM throughout. For the same compound, the TGI in [10], in [6] and in [7] was more than 100 µM each time.

For `COc1cc(-c2cc3ncccc3c3[nH]c(=O)c4cccnc4c23)cc(OC)c1OC`, the GI50 in assay [1] was 0.496 µM; in [8] it was 0.782 µM; in [2], 0.328 µM; in [3], more than 100 µM; in assay [4] it was 16.2 µM; in assay [5], 0.511 µM. Moreover, the GI50 in assay [10] is 0.392 µM; in [6], 0.603 µM; in assay [7], 0.482 µM. The TGI in assay [1] was 30.3 µM; in [8] it was 28.8 µM; in [2], 82.5 µM; in [3], more than 100 µM; in assay [4], more than 100 µM; in [5] it was more than 100 µM. The TGI in assay [10], in assay [6] and in [7] was more than 100 µM in each case.

As to `CCN(CC)c1ccc2nc3ccc(N=Nc4ccc(O)cc4)cc3[n+](-c3ccccc3)c2c1`, the GI50 was 4.14 µM in assay [1]; 20.8 µM in assay [3]; 2.85 µM in assay [5]; 7.81 µM in assay [6]; more than 100 µM in assay [7]. Also, the TGI is 23.3 µM in assay [1]; 73.7 µM in [3]; 17.3 µM in assay [5]; more than 100 µM in [6]; more than 100 µM in assay [7].

For `O=C(Oc1ccccc1)C(Br)C(Br)c1ccccc1` (stereo unspecified), the GI50 in assay [1] was 5.51 µM; in assay [8] it was 3.09 µM; in assay [9], 3.13 µM; in assay [2], 1.69 µM; in [3], 7 µM; in assay [5] it was 1.9 µM. In addition, the GI50 in assay [10] was 1.95 µM; in assay [6] it was 4.13 µM; in assay [7] it was 3.71 µM. In addition, the TGI in [1] came to 18.2 µM; in assay [8], 11.9 µM; in assay [9], 15.9 µM; in assay [2] it was 3.39 µM; in assay [3] it was 20.8 µM; in [5] it was 4 µM. Besides, the values for the TGI in assay [10], in [6] and in assay [7] were 9 µM, 15.8 µM and 19.9 µM, respectively.

In the case of `O=C(CN(/C=C/C(=O)C(F)(F)F)c1ccccc1)c1ccc(Cl)cc1`, the GI50 in assay [1] is 13.1 µM; in assay [8] it was 19.9 µM; in [2] it was 14.5 µM; in assay [3] it was 22.2 µM; in assay [4] it was 18.1 µM; in [5], 16 µM. Also, the GI50 in assay [10] was 20.9 µM; in assay [6], 15.7 µM; in assay [7], 17.6 µM. Also, the TGI in [1] turned out to be 25.8 µM; in [8], 52.5 µM; in assay [2] it was 35.4 µM; in assay [3], 46.4 µM; in assay [4], 40.7 µM; in assay [5], 32.6 µM. Besides, the values for the TGI in [10], in assay [6] and in [7] were 53.2 µM, 29.5 µM and 36 µM, respectively.

On to `COc1cc(-c2nccc3cc4c(cc23)OCO4)cc(OC)c1OC`, for which the GI50 was 4.55 µM in assay [1]; 2.33 µM in assay [2]; 24.9 µM in assay [3]; 26.9 µM in assay [4]; 6.06 µM in assay [5]; 4.86 µM in assay [6]. Further, the GI50 in [7] is 2.74 µM. The TGI in assay [1] was more than 100 µM; in assay [2], 27.4 µM; in assay [3] it was more than 100 µM; in assay [4], more than 100 µM; in assay [5], more than 100 µM; in assay [6] it was more than 100 µM. Besides, the TGI in assay [7] is more than 100 µM.

Turning to `CC(=O)NC1=C(N)C(=O)c2ccccc2C1=O`, the TGI in [1] was more than 100 µM; in assay [8] it was more than 100 µM; in assay [9] it was more than 100 µM; in assay [2] it was more than 100 µM; in [3], more than 100 µM; in assay [4], 50.4 µM. The TGI is 28.6 µM in assay [5], more than 100 µM in assay [10] and more than 100 µM in assay [6].

For `CCC(C)(O)c1cn(-c2ccc(S(=O)(=O)O)cc2)nn1` (stereo unspecified), the TGI in [1], in assay [8], in assay [9], in assay [2], in assay [3] and in [4] was more than 100 µM in each case. Further, the TGI in assay [5], in [10] and in [6] was more than 100 µM in each case.

`C=Cc1c(C)c2cc3[nH]c(cc4nc(cc5nc(cc1[nH]2)C(C)=C5CCC(=O)N(CC)CC)C(CCC(=O)N(CC)CC)=C4C)c(C)c3C=C`: the TGI in assay [1], in assay [8], in assay [9], in [2], in assay [3] and in [4] was more than 100 µM in each case. For the same compound, the TGI in assay [5], in assay [10] and in assay [6] was more than 100 µM each time.

On to `Cc1ccc(C2C(Cl)C(=O)N2NC(=O)c2ccc(N)cc2)cc1` (stereo unspecified), for which the TGI in assay [1] was 31.4 µM; in assay [8], 35.3 µM; in assay [9], 31.2 µM; in assay [2] it was 25.6 µM; in assay [3], 47.9 µM; in assay [4] it was 32.1 µM. The TGI in assay [5] turned out to be 24.4 µM; in [10], 61.2 µM; in assay [6], 28.3 µM.

The values are drawn from PubChem BioAssay (NCI).
